Test results as given in article PMC10354055, “An optimized Nurr1 agonist provides disease-modifying effects in Parkinson’s disease models” (Nature Communications, 2023).
Several values for one entry are separate records, joined by “and”; a condition that tells them apart may be missing. Equal entries are not always repeated.

Key:
[1] = system: AAV-αSyn-induced male mice; experiment: pS129 αSyn+ cells in SNpc, AAV-αSyn-induced mice; type: in vivo, mouse
Text: (§1) Adeno-associated viruses (AAVs) expressing GFP only or αSyn (wild-type or A53T) were kindly provided by Dr. Yoon Seong Kim from the University of Central Florida. Recombinant AAV vectors were produced using modified pAAV-IRES-hrGFP (Agilent) to express wild-type and mutant human αSyn under control of the CMV promoter. Viral particles (AAV2) were produced at the University of Iowa Viral Vector Core according to standard operating procedures (https://medicine.uiowa.edu/vectorcore/). […] AAV vectors were delivered into the substantia nigra unilaterally by stereotaxic surgery.
(§2) Images were acquired using a KEYENCE microscope and quantified as the number or optical density of immunoreactive cells using ImageJ software.
(§3) The numbers of TH^+ DA neurons, NeuN^+ neurons, pS129 αSyn^+ cells in the SN and Iba-1^+ microglia in the SN and striatum were stereologically counted in six coronal sections (30 µm thickness) taken every 6th section (180 µm intervals) for each brain. The boundaries of the SN and striatum were delimited at low magnification (4X) to estimate each total area. Immunoreactive cells were counted with images taken at high magnification (×40) by a single blinded investigator. The group mean of the total number of immunoreactive cells from each brain was transformed as percentage of the number in the control group (%). For AAV-αSyn-induced mice, the group mean of the total number of cells in the ipsilateral side was transformed as a percentage of that observed in the contralateral side.

MN9D cells = experiment: Cell viability, MTT reduction, MPP+-treated MN9D cells; type: cell-based, mouse
Method: Cell viability was determined using 3-(4,5-dimethylthiazol-2-yl)-2,5-diphenyltetrazolium bromide (MTT) as previously described[60]. Briefly, cells were incubated with 5 mg/ml of MTT (Sigma-Aldrich) solution for 3.5 h at 37 °C. MTT formazan crystals were dissolved in 10 times the volume of MTT solvent (4 mM HCl and 0.1% Nonidet P-40 in isopropanol) and the absorbance from the generated blue formazan was measured at 570 nm after 15 min incubation at room temperature. Cell viability was calculated as a percentage (%) of MTT reduction relative to vehicle control.

MPTP-induced male mice [2] = experiment: Dopamine ELISA in SN and STR, MPTP-induced mice; type: in vivo, mouse; settings: for DA: individual animals
Method: (§4) MPTP (Sigma-Aldrich) was intraperitoneally (i.p.) injected (30 mg/kg) for 5 days (Day 1-5). […] To test dyskinetic involuntary behavior, an L-DOPA injected group was included, which received 50 mg/kg of L-DOPA and 15 mg/kg of benserazide (Sigma-Aldrich) (i.p.) for 16 days (Day 1–16). All compounds were administered 6 h post-MPTP injection to avoid any effect of compounds on the MPTP metabolism in the brain. Motor and non-motor related behavior tests were performed on the following days as described in Fig. 4a in an assessor- and observer-blinded fashion. Pre-training and baseline setup for motor-related behaviors were performed 3 days prior to the injections. Mice were sacrificed and subjected to immunohistochemistry. Mice were housed at the Animal Care Facilities of McLean Hospital under a 12-h light/12-h dark cycle, ambient temperature and humidity. Animals were handled in accordance with McLean Hospital’s Institutional Animal Care and Use Committee (Protocol #: 2015N000002) and followed National Institutes of Health guidelines.
(§5) For MPTP-induced mice, the left hemisphere of each group (n = 5) was used for analysis and compared to the vehicle-treated group (VEH). For AAV-αSyn-injected mouse model, the viral vector injected side (left hemisphere; ipsilateral) of each group (n = 3) was compared to the non-injected side (right hemisphere; contralateral).

HeLa cells = experiment: Autophagolysosome (APL) formation assay, mRFP-GFP-LC3, HeLa cells; type: cell-based; settings: CQ 20 µM, 4A7C-301 1 µM; for percentage of red dots among total LC3 dots: EBSS 6 h; for APL formation / autophagy (in words): EBSS, BafA1 10 nM
Method: Nurr1 transactivity was normalized to β-galactosidase activity.
HeLa and N27-A cells were transfected with tandem mRFP-GFP-LC3 (Addgene) plasmid using Lipofectamine 2000 (Invitrogen) in 24-well plates. After 24 h, cells were incubated in starvation medium (Earle’s Balanced Salt Solution, EBSS; Lonza) containing bafilomycin A1 (BafA1, 10 nM), CQ (20 µM), or 4A7C-301 (1 µM) for 6 h and then fixed with 4% formaldehyde for fluorescence detection. Images were taken using a KEYENCE microscope and red (mRFP) LC3 dots and yellow (mRFP+GFP) LC3 dots were counted from three independent wells for each treatment group. 10 cells were randomly selected and counted from each well and a total of 30 cells were analyzed for each treatment group in both HeLa and N27-A cells.

[3] = system: AAV-αSyn-induced male mice; experiment: Dopamine ELISA in SN and STR, AAV-αSyn-injected mice; type: in vivo, mouse; settings: for DA levels in the SN and STR (in words): αSynWT-mice
Text: as §1, §5

[4] = system: AAV-αSyn-induced male mice; experiment: IHC/stereology of TH+ and NeuN+ neurons and TH+ fibers, AAV-αSyn-induced mice; type: in vivo, mouse; settings: for loss of TH+ and NeuN+ neurons and TH+ fibers (in words): αSynWT-mice
Text: as §1, §2, §3

MPTP-induced male mice [5] = experiment: Olfactory discrimination test, MPTP-induced PD model mice; type: in vivo, mouse; settings: for olfaction, olfactory discrimination test (in words): CQ 40, 4A7C-301 5, L-DOPA 50 mg/kg/day, i.p.
Method: as §4
The olfactory discrimination test was designed based on Prediger et al.. Briefly, mice were placed in a chamber (40 (w) × 20 (d) × 20 (h) cm) segmented with two identical compartments containing fresh sawdust (non-familiar odor) on one side and unchanged sawdust (familiar odor; maintained for 3 days before the test) on the other side. Mice could choose between one or another area by freely passing through an open door, for 5 min. Mice movements were monitored with EthoVision XT version 7.0 (Noldus) and time (s) and distance (cm) traveled in each compartment were recorded and analyzed.

[6] = Fig. S3e, MPP+, Control, CQ 100 µM, 4A7C-301 1 µM
[7] = Fig. S3e, MPP+, Nurr1 KD, CQ 100 µM, 4A7C-301 1 µM
[8] = Fig. S3e, MPP+, Nurr1 OE, CQ 100 µM, 4A7C-301 1 µM
[9] = Supplementary Figure S10e, αSynA53T
[10] = Supplementary Figure S10e, αSynWT
[11] = Supplementary Figure S10f, αSynA53T
[12] = Supplementary Figure S10f, αSynWT
[13] = Figure 4e, MPTP-induced mice, individual animal values

Structure (SMILES) | phosphorylated αSyn (αSynS129) in SN (in words) ([1]; αSynWT-mice) | MTT reduction (%) (MN9D cells; Fig. S3c, with MPP+, 1 µM) | MTT reduction (%) (MN9D cells; Fig. S3c, with MPP+, 5 µM) | MTT reduction (%) (MN9D cells; Fig. S3c, with MPP+, 10 µM) | MTT reduction (%) (MN9D cells; [6]) | MTT reduction (%) (MN9D cells; [7]) | MTT reduction (%) (MN9D cells; [8]) | DA levels in the SN (in words) (MPTP-induced male mice [2]) | DA levels in the STR (in words) (MPTP-induced male mice [2]) | DA (MPTP-induced male mice [2]; Supplementary Figure S10b) | DA (MPTP-induced male mice [2]; Supplementary Figure S10c) | percentage of red dots among total LC3 dots (HeLa cells) [%] | APL formation / autophagy (in words) (HeLa cells) | DA level (% of contralateral side) [3, 9] | DA level (% of contralateral side) [3, 10] | DA level (% of contralateral side) [3, 11] | DA level (% of contralateral side) [3, 12] | DA levels in the SN and STR (in words) [3] | loss of TH+ and NeuN+ neurons and TH+ fibers (in words) [4] | olfaction, olfactory discrimination test (in words) (MPTP-induced male mice [5]) | also measured
CCN(CC)CCCC(C)Nc1ccnc2cc(Cl)ccc12 (centres unmarked) [CQ, chloroquine] | significantly diminished | 53.8043% and 53.2609% and 51.6304% | 55.4348% and 56.5217% | 57.6087% and 55.9783% and 57.0652% | 62.8947% and 66.3158% and 61.0526% and 60.2632% | 34.7368% and 29.4737% and 30.7895% and 32.6316% | 86.0526% and 90.2105% and 84.3158% and 89.4737% | did so only in the SN | only in the SN | 49.362 pg/mL and 39.048 pg/mL and 57.173 pg/mL and 55.478 pg/mL and 57.153 pg/mL | 418.063 pg/mL and 471.117 pg/mL and 318.027 pg/mL and 389.411 pg/mL and 268.088 pg/mL | 21.7 | significantly inhibited | 32.648 % of contralateral side and 32.350 % of contralateral side and 33.119 % of contralateral side | 73.112 % of contralateral side and 72.962 % of contralateral side and 71.012 % of contralateral side | 33.096 % of contralateral side and 33.011 % of contralateral side and 33.320 % of contralateral side | 70.155 % of contralateral side and 68.851 % of contralateral side and 68.899 % of contralateral side | significantly increased | partially prevented | significantly restored | MTT reduction (%) (MN9D cells; Fig. S3c, with MPP+, 50 µM): 61.413% and 59.7826%; MTT reduction (%) (MN9D cells; Fig. S3c, with MPP+, 100 µM): 62.5% and 61.413% and 64.6739%; Velocity (MPTP-induced male mice [5]; [13]): 3.95 cm/s and 4.45 cm/s and 4.51 cm/s and 5.91 cm/s and 5.61 cm/s and 5.73 cm/s and 4.26 cm/s and 5.02 cm/s and 3.4 cm/s and 5.27 cm/s and 6.07 cm/s
CCN1CCN(c2cc(N3CCN(CC)CC3)nc(NCCNc3ccnc4cc(Cl)ccc34)n2)CC1 [4A7C-301, N^1-(4,6-bis(4-ethylpiperazin-1-yl)pyrimidin-2-yl)-N^2-(7-chloroquinolin-4-yl)ethane-1,2-diamine] | significantly diminished | 63.0435% and 64.1304% and 62.5% | 63.587% and 61.9565% and 64.6739% | 63.587% and 61.9565% | 68.2632% and 62.1053% and 68.2105% and 63.0526% | 31.8421% and 30.5263% and 31.5789% and 29.7368% | 85.4211% and 91.8947% and 89.4737% and 88.2632% | significantly restored | significantly restored | 62.619 pg/mL and 53.876 pg/mL and 49.863 pg/mL and 62.002 pg/mL and 54.392 pg/mL | 384.546 pg/mL and 562.262 pg/mL and 361.203 pg/mL and 377.923 pg/mL and 404.591 pg/mL | 63.9 | did not inhibit | 52.259 % of contralateral side and 51.869 % of contralateral side and 51.727 % of contralateral side | 78.777 % of contralateral side and 81.036 % of contralateral side and 79.879 % of contralateral side | 55.117 % of contralateral side and 54.305 % of contralateral side and 55.007 % of contralateral side | 77.063 % of contralateral side and 74.376 % of contralateral side and 74.108 % of contralateral side | significantly increased | partially prevented | significantly restored | phosphorylated αSyn (αSynS129) in SN (in words) ([1]; αSynA53T-mice): significantly reduced; MTT reduction (%) (MN9D cells; Fig. S1f, with MPP+, conc. 0.1 µM, replicates): 55.1664% and 54.641% and 56.7426%; MTT reduction (%) (MN9D cells; Fig. S1f, with MPP+, conc. 0.5 µM, replicates): 58.8441% and 58.3187% and 60.4203%; MTT reduction (%) (MN9D cells; Fig. S1f, with MPP+, conc. 1 µM, replicates): 62.5219% (2×) and 61.4711%; MTT reduction (%) (MN9D cells; Fig. S1f, with MPP+, conc. 5 µM, replicates): 60.9457% and 62.5219% and 63.0473%; MTT reduction (%) (MN9D cells; Fig. S1f, with MPP+, conc. 10 µM, replicates): 61.9965% and 61.4711% and 63.0473%; MTT reduction (%) (MN9D cells; Fig. S3c, with MPP+, 0.1 µM): 54.8913% and 57.0652% and 55.4348%; MTT reduction (%) (MN9D cells; Fig. S3c, with MPP+, 0.5 µM): 59.2391% and 59.7826% and 60.3261%; DA levels (in words) ([3]; αSynA53T-mice): increased; loss of TH+ and NeuN+ neurons and fibers (in words) ([4]; αSynA53T-mice): significantly prevented; Velocity (MPTP-induced male mice [5]; [13]): 4.45 cm/s and 5.11 cm/s and 5.02 cm/s and 4.95 cm/s and 5.52 cm/s and 4.32 cm/s and 6.05 cm/s and 4.65 cm/s and 4.59 cm/s; Duration to stay (sec), New bedding (MPTP-induced male mice [5]; Figure 4e, New bedding, MPTP-induced mice, individual animal values): 163.9 s and 142.98 s and 108.88 s and 102.84 s and 124.52 s and 121.25 s and 140.21 s and 123.92 s and 115.28 s; Duration to stay (sec), Old bedding (MPTP-induced male mice [5]; Figure 4e, Old bedding, MPTP-induced mice, individual animal values): 181.18 s and 132.3 s and 153.69 s and 187.59 s and 195.2 s and 172.27 s and 176.41 s and 155.62 s and 172.61 s
